Data reported in US10792373B2, “Drug delivery polymers and uses thereof” (priority 2016, dated 2020).

Columns and labels:
[1] = test system: Eμ-Myc p19Arf−/− lymphoma cells; assay: RNAi signature assay (GFP-tagged shRNAs, flow cytometry); assay type: cell-based, murine; settings: drug dosed to kill 80-90% of cells at 48 h; GFP positivity at 72 h
Description: RNAi signatures were performed as described previously^2-4. Briefly, Eμ-Myc p19^Arf−/− lymphoma cells were infected at about 30% with GFP-tagged shRNAs. The cells were then treated with drug to kill 80-90% of cells as judged by propidium iodide exclusion via flow cytometry at 48 h. At 72 h, GFP positivity was assessed via flow cytometry. Constrained linear regression was performed in Stata using least-squares fit with individual drug treatments as the predictor variables and the combination signatures as the response variables. The linear regression was constrained such that the sum of the predictor variables had to equal one and none could be negative.
(§1) Eμ-Myc p19Arf−/− lymphoma cells were infected at about 30% with GFP-tagged shRNAs. The cells were then treated with drug to kill 80-90% of cells as judged by propidium iodide exclusion via flow cytometry at 48 h. At 72 h GFP positivity was assessed via flow cytometry. Using the RNAi signature approach, the free drug, prodrug, single-drug-conjugated BASPs, and multi-drug conjugated BASPs illustrated in FIGS. 9A-9C were characterized. […] Next, the RNAi signatures for each of the free drugs and their corresponding prodrug monomers and BASPs were plotted (FIG. 20E) using principal component analysis (PCA). PCA is a means of representing the variance in a multi-dimensional dataset in fewer dimensions. […] One hypothesis that may explain the observed difference between the cisplatin and oxaliplatin prodrug mechanisms is related to the ligand lability of these species. Inside the cell, where the concentration of chloride ions is much lower than in the extracellular milieu (2 to 30 mM for the former compared to ˜100 mM for the latter), the weakly bound chloride ligands of free cisplatin are replaced with aquo ligands. This diaquo species induces cytotoxic inter- or intra-strand DNA cross-links. […] Additionally, utilizing a CisPt-DNA adduct specific antibody, the genomic DNA isolated from murine lymphoma cells after 8 h of drug treatment was analyzed. […]

Top2A = target: T1, Top2A (Mus musculus, UniProt Q01320); assay: GFP competition assay with validated Top2A shRNA; assay type: cell-based, murine
T1 construct: Eμ-Myc p19Arf−/− lymphoma cells were infected at about 30% with GFP-tagged shRNAs; endogenous in cells; host or cells: Eμ-Myc p19Arf-/- murine lymphoma cells
Description: (§2) Eμ-Myc p19Arf−/− lymphoma cells were infected at about 30% with GFP-tagged shRNAs. The cells were then treated with drug to kill 80-90% of cells as judged by propidium iodide exclusion via flow cytometry at 48 h. At 72 h GFP positivity was assessed via flow cytometry. Using the RNAi signature approach, the free drug, prodrug, single-drug-conjugated BASPs, and multi-drug conjugated BASPs illustrated in FIGS. 9A-9C were characterized. […] Next, the RNAi signatures for each of the free drugs and their corresponding prodrug monomers and BASPs were plotted (FIG. 20E) using principal component analysis (PCA). PCA is a means of representing the variance in a multi-dimensional dataset in fewer dimensions. […] Inside the cell, where the concentration of chloride ions is much lower than in the extracellular milieu (2 to 30 mM for the former compared to ˜100 mM for the latter), the weakly bound chloride ligands of free cisplatin are replaced with aquo ligands. This diaquo species induces cytotoxic inter- or intra-strand DNA cross-links.

Top1 = target: T2, Top1 (Mus musculus, UniProt Q04750); assay: GFP competition assay with validated Top1 shRNA; assay type: cell-based, murine
T2 construct: Eμ-Myc p19Arf−/− lymphoma cells were infected at about 30% with GFP-tagged shRNAs; endogenous in cells; host or cells: Eμ-Myc p19Arf-/- murine lymphoma cells
T2 sequence (Q04750 1-767): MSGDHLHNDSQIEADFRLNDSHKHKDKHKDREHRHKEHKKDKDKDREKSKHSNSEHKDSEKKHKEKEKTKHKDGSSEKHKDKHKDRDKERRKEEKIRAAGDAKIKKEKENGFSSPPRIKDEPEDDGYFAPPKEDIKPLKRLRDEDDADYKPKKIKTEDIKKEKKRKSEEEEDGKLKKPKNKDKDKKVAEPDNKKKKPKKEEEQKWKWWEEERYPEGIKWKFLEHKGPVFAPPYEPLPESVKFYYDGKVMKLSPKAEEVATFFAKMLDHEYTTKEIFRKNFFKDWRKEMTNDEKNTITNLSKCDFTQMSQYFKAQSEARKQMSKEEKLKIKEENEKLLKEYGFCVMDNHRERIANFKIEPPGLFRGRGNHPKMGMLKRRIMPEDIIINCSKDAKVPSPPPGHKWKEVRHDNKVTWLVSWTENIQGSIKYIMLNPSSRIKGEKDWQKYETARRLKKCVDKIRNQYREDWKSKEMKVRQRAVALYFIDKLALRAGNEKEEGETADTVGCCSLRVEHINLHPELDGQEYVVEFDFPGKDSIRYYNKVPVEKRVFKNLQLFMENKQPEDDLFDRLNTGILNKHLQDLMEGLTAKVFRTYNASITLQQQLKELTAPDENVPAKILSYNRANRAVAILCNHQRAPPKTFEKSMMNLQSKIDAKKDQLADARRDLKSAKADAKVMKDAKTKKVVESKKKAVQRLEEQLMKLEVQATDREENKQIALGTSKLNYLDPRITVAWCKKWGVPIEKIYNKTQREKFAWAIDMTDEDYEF
Description: as §2

[2] = test system: genomic DNA isolated from murine lymphoma cells; assay: Cisplatin-DNA adduct detection with a CisPt-DNA adduct specific antibody; assay type: cell-based; settings: after 8 h of drug treatment
Description: as §1

T1 sequence (Q01320 whole entry): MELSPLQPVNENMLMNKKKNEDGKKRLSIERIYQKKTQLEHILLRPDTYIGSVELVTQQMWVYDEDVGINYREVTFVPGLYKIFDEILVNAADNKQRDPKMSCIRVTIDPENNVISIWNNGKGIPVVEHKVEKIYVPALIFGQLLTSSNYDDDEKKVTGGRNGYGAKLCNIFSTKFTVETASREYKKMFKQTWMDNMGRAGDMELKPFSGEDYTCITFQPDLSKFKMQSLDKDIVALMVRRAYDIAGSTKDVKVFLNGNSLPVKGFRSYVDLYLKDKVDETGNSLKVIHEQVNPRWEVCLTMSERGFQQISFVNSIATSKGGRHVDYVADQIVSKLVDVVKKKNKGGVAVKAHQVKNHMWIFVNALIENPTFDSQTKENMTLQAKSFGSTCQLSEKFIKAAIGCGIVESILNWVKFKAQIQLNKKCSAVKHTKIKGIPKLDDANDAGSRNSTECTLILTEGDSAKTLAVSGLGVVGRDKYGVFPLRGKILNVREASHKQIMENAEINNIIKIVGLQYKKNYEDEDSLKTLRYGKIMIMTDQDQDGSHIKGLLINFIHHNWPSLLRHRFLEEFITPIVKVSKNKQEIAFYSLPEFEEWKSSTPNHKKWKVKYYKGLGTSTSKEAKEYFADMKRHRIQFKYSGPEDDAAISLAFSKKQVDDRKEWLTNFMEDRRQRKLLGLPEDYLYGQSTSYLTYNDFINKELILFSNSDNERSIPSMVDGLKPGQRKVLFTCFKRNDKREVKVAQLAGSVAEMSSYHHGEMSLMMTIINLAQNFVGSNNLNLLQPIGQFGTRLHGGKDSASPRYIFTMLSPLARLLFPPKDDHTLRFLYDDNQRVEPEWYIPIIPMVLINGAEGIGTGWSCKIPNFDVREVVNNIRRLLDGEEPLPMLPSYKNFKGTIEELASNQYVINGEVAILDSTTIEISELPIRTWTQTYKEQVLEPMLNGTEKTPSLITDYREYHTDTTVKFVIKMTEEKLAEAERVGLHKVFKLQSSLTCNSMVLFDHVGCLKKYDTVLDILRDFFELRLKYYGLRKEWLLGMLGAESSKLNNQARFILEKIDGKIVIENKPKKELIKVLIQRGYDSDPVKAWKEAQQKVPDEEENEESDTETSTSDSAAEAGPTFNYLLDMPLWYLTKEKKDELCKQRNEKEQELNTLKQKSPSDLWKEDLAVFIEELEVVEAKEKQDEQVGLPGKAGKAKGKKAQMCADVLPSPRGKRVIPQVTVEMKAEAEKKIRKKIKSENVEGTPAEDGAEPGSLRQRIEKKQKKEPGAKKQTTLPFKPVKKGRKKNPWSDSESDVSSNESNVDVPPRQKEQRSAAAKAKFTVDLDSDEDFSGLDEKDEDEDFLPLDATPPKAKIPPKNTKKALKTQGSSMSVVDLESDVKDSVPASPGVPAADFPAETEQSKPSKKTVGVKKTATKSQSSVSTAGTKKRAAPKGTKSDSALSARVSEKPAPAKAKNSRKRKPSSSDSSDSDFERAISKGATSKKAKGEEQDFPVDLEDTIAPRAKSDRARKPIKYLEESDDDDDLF

Row | Structure (SMILES) | RNAi signature classification (mechanism of action) [1] | response of cells harboring the Top2A shRNA (Top2A) | response of cells with knockdown of Top1 (Top1) | Cisplatin-DNA adducts [2]
1 | CC[C@@]1(O)C(=O)OCc2c1cc1n(c2=O)Cc2cc3ccccc3nc2-1 [CPT, camptothecin] | Topoisomerase I (Top1) poisons | sensitivity | resistance | –
2 | N.N.[Cl][Pt][Cl] [CisPt, cisplatin] | – | – | – | detected
3 | COc1cccc2c1C(=O)c1c(O)c3c(c(O)c1C2=O)C[C@@](O)(C(=O)CO)C[C@@H]3O[C@H]1C[C@H](N)[C@H](O)[C@H](C)O1 [DOX, doxorubicin] | Topoisomerase II (Top2) poison | resistant | sensitivity | –
4 | O=C1[O][Pt]2([NH][C@@H]3CCCC[C@H]3[NH]2)[O]C1=O [OxPt, oxaliplatin] | transcription/translation inhibitors | – | – | –
